This is an account of results in patent US8580832B2, “Substituted phenoxy aminothiazolones as estrogen related receptor-α modulators” (Janssen Pharmaceutica N.V., priority 2007, dated 2013).

This test concerns the target T1, ERR1 (also known as ERR-α or ERR-1) (Homo sapiens, UniProt P11474).
T1 construct: the ^6His-tagged-ERR1 LBD
T1 sequence (P11474 193-421 limits assumed): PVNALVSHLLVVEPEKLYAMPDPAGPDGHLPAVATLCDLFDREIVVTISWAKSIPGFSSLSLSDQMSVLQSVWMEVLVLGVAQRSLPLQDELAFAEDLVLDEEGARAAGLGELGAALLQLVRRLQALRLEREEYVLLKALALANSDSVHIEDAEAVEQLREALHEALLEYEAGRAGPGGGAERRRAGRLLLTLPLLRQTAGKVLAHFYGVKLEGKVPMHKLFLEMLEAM
In words: TR-FRET assay: disruption of co-activator peptide binding to ERR1 LBD. Format: biochemical. Particulars: 6His-tagged ERR1 LBD 6 nM, GST-SRC-2 peptide 6 nM, 25° C., 4-18 hours; average of 3 independent experiments. The essentials: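 The 6His-ERR1 LBD and a GST-hSRC2 co-activator peptide were detected by α-GST Eu cryptate and α-6His-XL665 TR-FRET. Buffer was 25 mM Tris pH 8, 2.5 mM Hepes, 20 mM KCl, 1 mM DTT, 0.05 mg/mL BSA, equilibrated 4-18 h at 25° C. Dose-response curves were fitted hyperbolically and averaged over 3 independent experiments.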

In turn, `COc1cc(/C=C2\SC(N(C)CC(O)CO)=NC2=O)ccc1Oc1ccc(Cl)cc1C(F)(F)F` (centres unmarked) [Example 62, 5-[4-(4-Chloro-2-trifluoromethyl-phenoxy)-3-methoxy-benzylidene]-2-[(2,3-dihydroxy-propyl)-methyl-amino]-thiazol-4-one] came in with an EC50 of 3 nM.

Compound `COc1cc(/C=C2\SC(NC3CCN(C)CC3)=NC2=O)ccc1Oc1ccc(C#N)cc1C(F)(F)F` [Compound 14, 4-{2-Methoxy-4-[2-(1-methyl-piperidin-4-ylamino)-4-oxo-4H-thiazol-5-ylidenemethyl]-phenoxy}-3-trifluoromethyl-benzonitrile] came in with an EC50 of 13 nM. This EC50 is about 4.3-fold higher than that of the compound before.

Compound `CN(CC(O)CO)C1=NC(=O)/C(=C/c2ccc(Oc3ccc(C#N)cc3C(F)(F)F)c(F)c2)S1` (centres unmarked) [Example 50, 4-(4-{2-[(2,3-Dihydroxy-propyl)-methyl-amino]-4-oxo-4H-thiazol-5-ylidenemethyl}-2-fluoro-phenoxy)-3-trifluoromethyl-benzonitrile] displayed an EC50 of 12 nM.

In turn, `N#Cc1ccc(Oc2ccc(/C=C3\SC(N4CC(C(=O)O)C4)=NC3=O)cc2F)c(C(F)(F)F)c1` [Example 116, 1-{5-[4-(4-Cyano-2-trifluoromethyl-phenoxy)-3-fluoro-benzylidene]-4-oxo-4,5-dihydro-thiazol-2-yl}-azetidine-3-carboxylic acid] gave an EC50 of 34 nM.

`COc1cc(/C=C2\SC(N3CCCC(O)C3)=NC2=O)ccc1Oc1ccc(C#N)cc1C(F)(F)F` (centres unmarked) [Example 102, 4-{4-[2-(3-Hydroxy-piperidin-1-yl)-4-oxo-4H-thiazol-5-ylidenemethyl]-2-methoxy-phenoxy}-3-trifluoromethyl-benzonitrile] had an EC50 of 29 nM.

Regarding `COc1cc(/C=C2\SC(N)=NC2=O)ccc1Oc1ccc(C#N)cc1C(F)(F)F` [Compound 1, 4-[4-(2-Amino-4-oxo-4H-thiazol-5-ylidenemethyl)-2-methoxy-phenoxy]-3-trifluoromethyl-benzonitrile], the EC50 was found to be 12 nM. Compared with the last compound, the EC50 is about 2.4-fold lower.

For the compound `COc1cc(/C=C2\SC(N3CCNC(=O)C3)=NC2=O)ccc1Oc1ccc(C#N)cc1Cl` [Example 64, 3-Chloro-4-{2-methoxy-4-[4-oxo-2-(3-oxo-piperazin-1-yl)-4H-thiazol-5-ylidenemethyl]-phenoxy}-benzonitrile], the EC50 was found to be 44 nM. Against the preceding compound, the EC50 is about 3.7-fold higher.

Take `COc1cc(/C=C2\SC(NCCN3CCCC3=O)=NC2=O)ccc1Oc1ccc(Cl)cc1C(F)(F)F` [Example 60, 5-[4-(4-Chloro-2-trifluoromethyl-phenoxy)-3-methoxy-benzylidene]-2-[2-(2-oxo-pyrrolidin-1-yl)-ethylamino]-thiazol-4-one]: the concentration for a half-maximal effect (EC50) stood at 4 nM.

`COC(=O)C1CCN(C2=NC(=O)/C(=C/c3ccc(Oc4ccc(C#N)cc4C(F)(F)F)c(OC)c3)S2)CC1` [Example 79, 1-{5-[4-(4-Cyano-2-trifluoromethyl-phenoxy)-3-methoxy-benzylidene]-4-oxo-4,5-dihydro-thiazol-2-yl}-piperidine-4-carboxylic acid methyl ester]: a half-maximal response (EC50) required 25 nM. Against the preceding compound, the EC50 is about 6.2-fold higher.

In turn, `COc1cc(/C=C2\SC(N(C)C)=NC2=O)ccc1Oc1ccc(C#N)cc1C(F)(F)F` [Example 81, 4-[4-(2-Dimethylamino-4-oxo-4H-thiazol-5-ylidenemethyl)-2-methoxy-phenoxy]-3-trifluoromethyl-benzonitrile] displayed an EC50 of 17 nM.

Consider `CCOc1cc(/C=C2\SC(N(CCO)CCO)=NC2=O)ccc1Oc1ccc(C#N)cc1C(F)(F)F` [Example 56, 4-(4-{2-[Bis-(2-hydroxy-ethyl)-amino]-4-oxo-4H-thiazol-5-ylidenemethyl}-2-ethoxy-phenoxy)-3-trifluoromethyl-benzonitrile], for which the EC50 worked out at 150 nM.

Turning to `COc1cc(/C=C2\SC(NCCN3CCCC3=O)=NC2=O)ccc1Oc1ccc(C#N)cc1Cl` [Example 63, 3-Chloro-4-(2-methoxy-4-{4-oxo-2-[2-(2-oxo-pyrrolidin-1-yl)-ethylamino]-4H-thiazol-5-ylidenemethyl}-phenoxy)-benzonitrile], a half-maximal effect (EC50) was put at 75 nM.

With `COc1cc(/C=C2\SC(NCC(=O)O)=NC2=O)ccc1Oc1ccc(C#N)cc1C(F)(F)F` [Example 76, {5-[4-(4-Cyano-2-trifluoromethyl-phenoxy)-3-methoxy-benzylidene]-4-oxo-4,5-dihydro-thiazol-2-ylamino}-acetic acid], a half-maximal effect (EC50) was put at 16 nM.

Take `COc1cc(/C=C2\SC(N(C)CCN)=NC2=O)ccc1Oc1ccc(C#N)cc1C(F)(F)F` [Example 37, 4-(4-{2-[(2-Amino-ethyl)-methyl-amino]-4-oxo-4H-thiazol-5-ylidenemethyl}-2-methoxy-phenoxy)-3-trifluoromethyl-benzonitrile]: the EC50 was 100 nM.

A word on the EC50: it is the concentration giving half of the maximal effect.
